The record followed here is patent publication US9365522B2, “Pyrazole amide derivative” (AMGEN INC., priority 2015, dated 2016).

The target of the assay is T1, ligand binding domain of human ROR gamma (Homo sapiens, UniProt P51449).
T1 construct: NM_001001523; expressed in transfected cells; host or cells: HEK293T
T1 sequence (P51449 247-497 isoform P51449-2): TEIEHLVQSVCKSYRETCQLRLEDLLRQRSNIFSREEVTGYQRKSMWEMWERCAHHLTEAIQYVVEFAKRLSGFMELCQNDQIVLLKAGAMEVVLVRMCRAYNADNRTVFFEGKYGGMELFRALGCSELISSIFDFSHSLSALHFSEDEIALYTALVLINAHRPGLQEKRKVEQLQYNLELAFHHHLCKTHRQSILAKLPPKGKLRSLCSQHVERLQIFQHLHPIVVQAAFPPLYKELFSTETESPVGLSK
In words: ROR gamma reporter gene assay (GAL4-RORγ LBD luciferase, Dual-Glo). Type of assay: cell-based. To be noted: HEK293T cells transfected with pM-ROR gamma, 8 concentrations 3.5 nM to 10.5 μM, 24 h incubation; read-out: result (pIC50, inhibition of RORγ transcriptional activity) (converted). As for the experimental part:
Luciferase reporter gene assay was used to assess inhibition of RORγ transcriptional activity.
ROR gamma expression vector was prepared by inserting the ligand binding domain of human ROR gamma (amino acid 247-497 of Genbank Accession NO. NM_001001523) adjacent to the yeast GAL4 transcription factor DNA binding domain in the expression vector pM (Clontech). The resulting expression vector pM-ROR gamma was used in transfection experiments together with the pGL4 luciferase reporter plasmid (Promega) containing five copies of the UAS GAL4 recognition site and pRL-CMV plasmids (Promega) containing the constitutive CMV promoter and the renilla luciferase.
For preparing transfection reagent/DNA mixture, 1 μg pM-ROR gamma, 1 μg pGL4 5×UAS, 625 pg pRL-CMV and 6.25 μL FuGENE™ HD transfection reagent (Promega) were mixed in 0.25 mL OPTI-MEM™ (Life technologies) at room temperature. At the same time, Negative control DNA mixture was prepared by using 1 μg pM empty vector instead of pM-ROR gamma plasmid. After a fifteen minute incubation, 0.25 mL of transfection reagent/DNA mixture was added to 1,000,000 of HEK293T cells (ATCC) in 5 mL of OPTI-MEM™ containing 10% Charcoal Stripped Fetal Bovine Serum.
Transfected cells were seeded onto 384 well plate (10 μL/well) and the 7.5 nL of test compounds were added to the wells in 8 concentrations ranging from 3.5 nM to 10.5 μM. The compounds were dissolved in 100% DMSO and the final concentration of DMSO in the assay was 0.075%.
After 24 h of incubation at 37° C., 5% CO2 in a cell culture incubator, the Dual-Glo™ Luciferase Assay System was used to detect activity according to the manufacturer's instructions (Promega, Cat. No.: E2920).
Data was plotted and pIC50 values were calculated using the XLfit program (ID Business Solutions Ltd.).
For orientation: A reporter such as luciferase makes a cellular process visible.

For `O=C(CN(CCC1CC1)C(=O)c1cnn([C@H]2CC[C@H](C(=O)O)CC2)c1C(F)(F)F)c1c(Cl)cncc1Cl` [Example 34, trans-4-(4-((2-cyclopropylethyl)(2-(3,5-dichloropyridin-4-yl)-2-oxoethyl)carbamoyl)-5-(trifluoromethyl)-1H-pyrazol-1-yl)cyclohexanecarboxyic acid], the IC50 was 1.35e+06 pM.
Take `CC(C)=CCN(CC(=O)c1c(Cl)cncc1Cl)C(=O)c1cnn([C@H]2CC[C@H](C(=O)O)CC2)c1C(F)(F)F` [Example 35, trans-4-(4-((2-(3,5-dichloropyridin-4-yl)-2-oxoethyl)(3-methylbut-2-en-1-yl)carbamoyl)-5-(trifluoromethyl)-1H-pyrazol-1-yl)cyclohexanecarboxyic acid]: the IC50 was 112000 pM.
With `CC1(C)CCC(CN(CC(=O)c2c(Cl)cncc2Cl)C(=O)c2cnn([C@H]3CC[C@H](C(=O)O)CC3)c2C(F)(F)F)CC1` [Example 36, trans-4-(4-((2-(3,5-dichloropyridin-4-yl)-2-oxoethyl)((4,4-dimethylcyclohexyl)methyl)carbamoyl)-5-(trifluorornethyl)-1H-pyrazol-1-yl)cyclohexanecarboxylic acid] the figure was 117000 pM; with `O=C(CN(CC1CCC2(CC1)CC2)C(=O)c1cnn([C@H]2CC[C@H](C(=O)O)CC2)c1C(F)(F)F)c1c(Cl)cncc1Cl` [Example 37, trans-4-(4-((2-(3,5-dichloropyridin-4-yl)-2-oxoethyl)(spiro[2.5]octan-6-ylmethyl)carbamoyl)-5-(trifluoromethyl)-1H-pyrazol-1-yl)cyclohexanecarboxylic acid], 18600 pM; with `O=C(CN(C[C@@H]1CCOC1)C(=O)c1cnn([C@H]2CC[C@H](C(=O)O)CC2)c1C(F)(F)F)c1c(Cl)cncc1Cl` [Example 38, trans-4-(4-((2-(3,5-dichloropyridin-4-yl)-2-oxoethyl)(((S)-tetrahydrofuran-3-yl)methyl)carbamoyl)-5-(trifluoromethyl)-1H-pyrazol-1-yl)cyclohexanecarboxylic acid], 1.55e+06 pM.
Take `O=C(CN(C[C@H]1CCOC1)C(=O)c1cnn([C@H]2CC[C@H](C(=O)O)CC2)c1C(F)(F)F)c1c(Cl)cncc1Cl` [Example 39, trans-4-(4-((2-(3,5-dichloropyridin-4-yl)-2-oxoethyl)(((R)-tetrahydrofuran-3-yl)methyl)carbamoyl)-5-(trifluoromethyl)-1H-pyrazol-1-yl)cyclohexanecarboxylic acid]: the IC50 is above 1e+07 pM.
To `O=C(CN(Cc1ccccc1)C(=O)c1cnn([C@H]2CC[C@H](C(=O)O)CC2)c1C(F)(F)F)c1c(Cl)cncc1Cl` [Example 40, trans-4-(4-(benzyl(2-(3,5-dichloropyridin-4-yl)-2-oxoethyl)carbamoyl)-5-(trifluoromethyl)-1H-pyrazol-1-yl)cyclohexanecarboxylic acid] belongs 56200 pM; to `O=C(CN(Cc1ccc(Cl)cc1)C(=O)c1cnn([C@H]2CC[C@H](C(=O)O)CC2)c1C(F)(F)F)c1c(Cl)cncc1Cl` [Example 41, trans-4-(4-((4-chlorobenzyl)(2-(3,5-dichloropyridin-4-yl)-2-oxoethyl)carbamoyl)-5-(trifluoromethyl)-1H-pyrazol-1-yl)cyclohexanecarboxylic acid], 29500 pM.
With `O=C(CN(Cc1cc(F)cc(F)c1)C(=O)c1cnn([C@H]2CC[C@H](C(=O)O)CC2)c1C(F)(F)F)c1c(Cl)cncc1Cl` [Example 42, trans-4-(4-((2-(3,5-dichloropyridin-4-yl)-2-oxoethyl)(3,5-difluorobenzyl)carbamoyl)-5-(trifluoromethyl)-1H-pyrazol-1-yl)cyclohexanecarboxylic acid] the figure was 44700 pM.
To `O=C(CN(Cc1cccc(F)c1F)C(=O)c1cnn([C@H]2CC[C@H](C(=O)O)CC2)c1C(F)(F)F)c1c(Cl)cncc1Cl` [Example 43, trans-4-(4-((2-(3,5-dichloropyridin-4-yl)-2-oxoethyl)(2,3-difluorobenzyl)carbamoyl)-5-(trifluoromethyl)-1H-pyrazol-1-yl)cyclohexanecarboxylic acid] belongs 33900 pM; to `O=C(CN(Cc1ccc(F)c(F)c1)C(=O)c1cnn([C@H]2CC[C@H](C(=O)O)CC2)c1C(F)(F)F)c1c(Cl)cncc1Cl` [Example 44, trans-4-(4-((2-(3,5-dichloropyridin-4-yl)-2-oxoethyl)(3,4-difluorobenzyl)carbamoyl)-5-(trifluorornethyl)-1H-pyrazol-1-yl)cyclohexanecarboxylic acid], 14800 pM.
`O=C(CN(Cc1cc(F)ccc1F)C(=O)c1cnn([C@H]2CC[C@H](C(=O)O)CC2)c1C(F)(F)F)c1c(Cl)cncc1Cl` [Example 45, trans-4-(4-((2-(3,5-dichloropyridin-4-yl)-2-oxoethyl)(2,5-difluorobenzyl)carbamoyl)-5-(trifluorornethyl)-1H-pyrazol-1-yl)cyclohexanecarboxylic acid]: the IC50 is 58900 pM.
With `O=C(CN(Cc1ccco1)C(=O)c1cnn([C@H]2CC[C@H](C(=O)O)CC2)c1C(F)(F)F)c1c(Cl)cncc1Cl` [Example 46, trans-4-(4-((2-(3,5-dichloropyridin-4-yl)-2-oxoethyl)(furan-2-ylmethyl)carbamoyl)-5-(trifluoromethyl)-1H-pyrazol-1-yl)cyclohexanecarboxylic acid] the figure was 398000 pM; with `O=C(CN(Cc1ccoc1)C(=O)c1cnn([C@H]2CC[C@H](C(=O)O)CC2)c1C(F)(F)F)c1c(Cl)cncc1Cl` [Example 47, trans-4-(4-((2-(3,5-dichloropyridin-4-yl)-2-oxoethyl)(furan-3-ylmethyl)carbamoyl)-5-(trifluoromethyl)-1H-pyrazol-1-yl)cyclohexanecarboxylic acid], 102000 pM; with `O=C(CN(Cc1cnccn1)C(=O)c1cnn([C@H]2CC[C@H](C(=O)O)CC2)c1C(F)(F)F)c1c(Cl)cncc1Cl` [Example 48, trans-4-(4-((2-(3,5-dichloropyridin-4-yl)-2-oxoethyl)(pyrazin-2-ylmethyl)carbarnoyl)-5-(trifluoromethyl)-1H-pyrazol-1-yl)cyclohexanecarboxylic acid], above 1e+07 pM.
Consider `Cc1cncc(Cl)c1C(=O)CN(Cc1cc(F)cc(F)c1)C(=O)c1cnn([C@H]2CC[C@H](C(=O)O)CC2)c1C(F)(F)F` [Example 49, trans-4-(4-((2-(3-chloro-5-methylpyridin-4-yl)-2-oxoethyl)(3,5-difluorobenzyl)carbamoyl)-5-(trifluoromethyl)-1H-pyrazol-1-yl)cyclohexanecarboxylic acid], for which the IC50 was 40700 pM.
As to `O=C(CN(Cc1cc(F)cc(F)c1)C(=O)c1cnn([C@H]2CC[C@H](C(=O)O)CC2)c1C(F)(F)F)c1c(F)cncc1Cl` [Example 50, trans-4-(4-((2-(3-chloro-5-fluoropyridin-4-yl)-2-oxoethyl)(3,5-difluorobenzyl)carbamoyl)-5-(trifluoromethyl)-1H-pyrazol-1-yl)cyclohexanecarboxylic acid], the IC50 is 70800 pM.
With `O=C(CN(Cc1cc(F)cc(F)c1)C(=O)c1cnn([C@H]2CC[C@H](C(=O)O)CC2)c1C(F)(F)F)c1c(F)cncc1F` [Example 51, trans-4-(4-((3,5-difluorobenzyl)(2-(3,5-difluoropyridin-4-yl)-2-oxoethyl)carbamoyl)-5-(trifluoromethyl)-1H-pyrazol-1-yl)cyclohexanecarboxylic acid] the figure was 4.07e+06 pM; with `Cc1cncc(C)c1C(=O)CN(Cc1cc(F)cc(F)c1)C(=O)c1cnn([C@H]2CC[C@H](C(=O)O)CC2)c1C(F)(F)F` [Example 52], 245000 pM; with `O=C(CN(Cc1cc(F)cc(F)c1)C(=O)c1cnn([C@H]2CC[C@H](C(=O)O)CC2)c1C(F)(F)F)c1c(Cl)cccc1Cl` [Example 53, trans-4-(4-((2-(2,6-dichlorophenyl)-2-oxoethyl)(3,5-difluorobenzyl)carbamoyl)-5-(trifluoromethyl)-1H-pyrazol-1-yl)cyclohexanecarboxylic acid], 16200 pM.
